Laboratory results reported in patent US20170058314A1, “NOVEL METHODOLOGY FOR IDENTIFYING ANTI-PERSISTER ACTIVITY AND ANTIMICROBIAL SUSCEPTIBILITY FOR BORRELIA BURGDORFERI AND OTHER BACTERIA” (priority 2014, published 2017).
≈ marks a conversion by molar mass, not a printed value.

How the values were obtained:
[1] = system: B. burgdorferi (growing, strain B31); conditions: actively growing B. burgdorferi; Feng, Wang, Shi, et al., 2014; cited from earlier work
[2] = system: round body form of B. burgdorferi; assay: SYBR Green I/PI assay on amoxicillin-induced round body form; conditions: for Ratios of green/red fluorescence, Primary screening / Ratios of green/red fluorescence, Rescreening (first column) / Ratios of green/red fluorescence, Rescreening (second column): round body form, 50 μM
[3] = system: stationary phase B. burgdorferi; assay: Subculture test of drug-treated stationary phase B. burgdorferi; type: cell-based, Borrelia burgdorferi
Protocol: Seven-day-old B. burgdorferi culture (1×10^7 spirochetes/mL) (500 μL) was treated with drugs or drug combinations in Eppendorf tubes. After incubation at 33° C. for 7 days without shaking, the cells were collected by centrifugation and rinsed with 1 mL fresh BSK-H medium followed by resuspension in 500 μL fresh BSK-H medium without antibiotics. Then 50 μL of cell suspension was transferred to 1 mL fresh BSK-H medium for subculture at 33° C. for 2 weeks. Cell proliferation was assessed using SYBR Green I/PI assay and bacterial counting chamber (Hausser Scientific Partnership) by microscopy as described above.

[4] = system: stationary phase B. burgdorferi persisters (strain B31); assay: NCI compound library screen, SYBR Green I/PI assay (plate reader); conditions: Borreliella burgdorferi, 168 h
[5] = system: log phase and stationary phase B. burgdorferi culture; assay: Antibiotic exposure assay, SYBR Green I/PI (drugs alone and combinations)
Protocol: To qualitatively determine the effect of antibiotics, 10 μL of each compound from the pre-diluted plate or pre-diluted stock was added to stationary phase B. burgdorferi culture in the 96-well plate. The final volume per well was adjusted to 100 μL at a concentration of 10 μg/mL for each antibiotic. Plates were sealed and placed in a 33° C. incubator for 7 days. The SYBR Green I/PI viability assay was used to assess the live and dead cells after antibiotic exposure as described (Feng, Wang, Shi, et al., 2014). Briefly, 10 μL of SYBR Green I (10,000×stock, Invitrogen) was mixed with 30 μL propidium iodide (PI, 20 mM) into 1.0 mL of sterile dH2O. Then, 10 μL of staining mixture was added to each well and mixed thoroughly. The plates were incubated at room temperature in the dark for 15 minutes followed by plate reading at excitation wavelength at 485 nm and the fluorescence intensity at 535 nm (green emission) and 635 nm (red emission) in microplate reader (HTS 7000 plus Bio Assay Reader, PerkinElmer Inc., USA). With least-square fitting analysis, the regression equation and regression curve of the relationship between percentage of live bacteria and green/red fluorescence ratios was obtained. The regression equation was used to calculate the percentage of live cells in each well of the 96-well plate.
To qualitatively determine the effect of antibiotics, 10 μL of each compound (final concentration 50 μM) from the pre-diluted plate or pre-diluted stock was added to round body form or stationary phase B. burgdorferi culture in the 96-well plate. The final volume per well was adjusted to 100 μL. Plates were sealed and placed in a 33° C. incubator for 7 days. The SYBR Green I/PI viability assay was used to assess the live and dead cells after antibiotic exposure as described (Feng, Wang, Shi, et al., 2014). Briefly, 10 μL of SYBR Green I (10,000×stock, Invitrogen) was mixed with 30 μL propidium iodide (PI, 20 mM, Sigma-Aldrich) into 1.0 mL of sterile dH2O. Then, 10 μL staining mixture was added to each well and mixed thoroughly. The plates were incubated at room temperature in the dark for 15 minutes followed by plate reading at excitation wavelength at 485 nm and the fluorescence intensity at 535 nm (green emission) and 635 nm (red emission) in microplate reader (HTS 7000 plus Bio Assay Reader, PerkinElmer Inc., USA). With least-square fitting analysis, the regression equation and regression curve of the relationship between percentage of live and dead bacteria as shown in green/red fluorescence ratios was obtained. The regression equation was used to calculate the percentage of live cells in each well of the 96-well plate.
Round body form and ten day old stationary phase (in brackets) B. burgdorferi culture was treated with 10 μg/mL drugs or their combinations for 7 days. Residual viable B. burgdorferi was calculated according to the regression equation and ratio of Green/Red fluorescence obtained by SYBR Green I/PI assay as described (Feng, Wang, Shi, et al., 2014). Direct microscopy counting was employed to rectify the results of the SYBR Green I/PI assay. […] Abbreviation: Dox, doxcycline; CefP, cefoperazone; DAP, daptomycin; CefM, cefmetazole; Scp, sulfachlorpyridazine; Art, artemisinin; Nft, nitrofurantoin.

[6] = system: round body form of B. burgdorferi; assay: Subculture test of drug-treated round body form
Protocol: For induction of round body form of B. burgdorferi, B. burgdorferi spirochetes (1×10^5 spirochetes/mL) were cultured in BKS-H medium for 6 days without shaking. After the 6-day incubation, amoxicillin at a final concentration of 50 μg/mL was added to the culture for round body form induction. After 72 h induction at 33° C., the round body forms of B. burgdorferi were examined by the microscopy. The round body cells (100 μL) were transferred to 96-well tissue culture microplates for evaluation of the effects of antibiotic treatment.

[7] = system: stationary phase B. burgdorferi persisters (strain B31); assay: epifluorescence microscope counting after SYBR Green I/PI staining, FDA drug screen; conditions: Borreliella burgdorferi, 168 h, read-out: Residual viable cells (epifluorescence microscope counting)
[8] = system: B. burgdorferi (growing, strain B31); assay: MIC determination, standard microdilution method; type: cell-based, Borrelia burgdorferi; conditions: Borreliella burgdorferi; growing B. burgdorferi; read-out: MIC
[9] = system: stationary phase B. burgdorferi persisters (strain B31); assay: NCI compound library rescreen, epifluorescence microscope counting; conditions: Borreliella burgdorferi, 168 h
[10] = system: stationary phase B. burgdorferi persisters (strain B31); assay: SYBR Green I/PI viability assay (plate reader), FDA-approved drug library screen
[11] = system: round body form of B. burgdorferi; conditions: 50 µM
[12] = 10 μg/mL drugs or combinations, 7 days
[13] = 10 μg/mL, 7 days treatment, then subculture
[14] = 50 μM, 7 days, stationary phase

## CCCCCCCCCC(=O)N[C@@H](Cc1c[nH]c2ccccc12)C(=O)N[C@H](CC(N)=O)C(=O)N[C@@H](CC(=O)O)C(=O)N[C@@H]1C(=O)NCC(=O)N[C@@H](CCCN)C(=O)N[C@@H](CC(=O)O)C(=O)N[C@H](C)C(=O)N[C@@H](CC(=O)O)C(=O)NCC(=O)N[C@H](CO)C(=O)N[C@@H]([C@H](C)CC(=O)O)C(=O)N[C@@H](CC(=O)c2ccccc2N)C(=O)O[C@@H]1C [Daptomycin]
[1]
  MIC (previous study): 12.5 to 25 µg/mL
[2]; [12]
  Live cell %, round body form: 17%
[2]; Borreliella burgdorferi, 168 h, read-out: Residual viable cells (SYBR Green I/PI assay)
  viability at 50 µM: 19%
[2]; 7 days
  Ratios of green/red fluorescence, Primary screening: 5.90
  Ratios of green/red fluorescence, Rescreening (first column): 6.09
  Ratios of green/red fluorescence, Rescreening (second column): 5.93
[3]; 10 μg/mL, 7 days
  G/R ratio immediately after treatment: 5.85
[3]; [13]
  G/R ratio after 7 day subculture: 7.01
  G/R ratio after 15 day subculture: 7.11
  Spirochetes after 7 day subculture (microscope counting): 3.1 × 10^6
  Spirochetes after 15 day subculture (microscope counting): 5 × 10^6
[3]; Borreliella burgdorferi, 168 h, read-out: Residual viable cells (epifluorescence microscope counting)
  viability at 10 µg/mL: 55%
[4]; read-out: Residual viable cells (%) 20 μM (SYBR Green I/PI assay), 20 μM, seven day old stationary phase, 7 days
  viability at 20 µM: 32%
[4]; read-out: Residual viable cells (SYBR Green I/PI assay), 50 μM, seven day old stationary phase culture, 7 days
  viability at 50 µM: 23%
[5]; [12]
  Live cell %, ten day old stationary phase culture (in brackets): 48%
[5]; Borrelia burgdorferi, 7 days, 10 μg/mL
  Live Cell % (residual viable B. burgdorferi): 52%
[5]; Borreliella burgdorferi, 168 h, read-out: Live Cell % (residual viable B. burgdorferi), ten-day-old stationary phase culture enriched with micro-colonies, 10 μg/mL each drug, 7 days
  viability at 10 µg/mL: 48%
[6]; [13]
  Spirochetes number After 10 day subculture: 5 × 10^5
  Spirochetes number After 20 day subculture: 5 × 10^6
[6]; Borreliella burgdorferi, 168 h, read-out: Residual viable cells
  viability at 10 µg/mL: 18%
[7]
  viability at 50 µM: 35%
[8]
  MIC: 12.5 to 25 µg/mL (≈ 7.71 to 15.4 µM)
[9]; read-out: Activity against persisters (residual viable cell percentage)
  viability at 50 µM: 18%
[9]; read-out: Residual viable cells (%) 20 μM (epifluorescence microscope counting)
  viability at 20 µM: 25%
[9]; read-out: Residual viable cells (%) 50 μM (epifluorescence microscope counting)
  viability at 50 µM: 18%
[9]; read-out: Residual viable cells (epifluorescence microscope counting)
  viability at 50 µM: 18%
[10]; [14]
  Ratio of Green/Red fluorescence, Primary screening: 6.10
  Ratio of Green/Red fluorescence, Rescreening (first column): 6.20
  Ratio of Green/Red fluorescence, Rescreening (second column): 6.09
[10]; Borreliella burgdorferi, 168 h, read-out: Residual viable cells (regression equation, SYBR Green I/PI assay)
  viability at 50 µM: 28%

## N[C@@H](C(=O)N[C@@H]1C(=O)N2C(C(=O)O)=C(Cl)CC[C@H]12)c1ccccc1 [Loracarbef]
[2]; 7 days
  Ratios of green/red fluorescence, Primary screening: 6.35
  Ratios of green/red fluorescence, Rescreening (first column): 6.25
  Ratios of green/red fluorescence, Rescreening (second column): 6.24
[11]
  Residual viable cells (SYBR Green I/PI assay): 33%
